The values below come from patent publication US20200239530A1, “COMPOUNDS AND METHODS OF MODULATING PROTEIN DEGRADATION” (Vividion Therapeutics, Inc., priority 2017, published 2020).

This test deals with T1, KBTBD8 Kelch repeat and BTB domain-containing protein 8 (Homo sapiens, UniProt Q8NFY9).
T1 construct: Cells were resuspended in cold PBS on ice and sonicated with a probe sonicator to achieve lysis; endogenous in cells
T1 sequence (Q8NFY9 1-601): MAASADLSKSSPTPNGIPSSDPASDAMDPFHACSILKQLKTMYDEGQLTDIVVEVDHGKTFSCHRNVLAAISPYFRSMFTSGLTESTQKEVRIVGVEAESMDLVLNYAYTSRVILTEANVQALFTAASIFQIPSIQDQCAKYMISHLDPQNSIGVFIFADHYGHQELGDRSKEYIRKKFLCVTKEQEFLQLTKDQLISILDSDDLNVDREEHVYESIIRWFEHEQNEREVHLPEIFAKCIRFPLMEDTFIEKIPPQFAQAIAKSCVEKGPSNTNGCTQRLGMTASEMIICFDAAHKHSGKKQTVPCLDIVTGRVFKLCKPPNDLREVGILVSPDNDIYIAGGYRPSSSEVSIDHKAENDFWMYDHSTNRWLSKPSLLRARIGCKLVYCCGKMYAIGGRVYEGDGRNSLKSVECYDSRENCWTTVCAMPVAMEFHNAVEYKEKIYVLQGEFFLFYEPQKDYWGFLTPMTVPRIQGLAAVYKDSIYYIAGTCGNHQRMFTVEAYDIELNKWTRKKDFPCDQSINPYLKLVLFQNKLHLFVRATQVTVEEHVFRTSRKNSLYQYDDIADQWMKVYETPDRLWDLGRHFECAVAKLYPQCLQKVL
Description: Cysteine liganding, probe competition. Format: binding. As to conditions: for 100 Max / 100 ave / 500 Max / 500 ave: uniprot Q8NFY9. In short, it runs like this:
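Read-out is loss of desthiobiotin iodoacetamide labelling at cysteines, measured on streptavidin-enriched tryptic peptides. Compound preincubation ran 1 hr at 25° C in PBS lysate holding 5 mg/ml proteome before the probe was added.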

Take `COc1ccc2c(c1)CCCN2C(=O)CCl` [KB02]: the “100 Max” value was determined as 38.4, the 100 ave is listed as 36.7, the “500 Max” value came out at 79.2 and the 500 ave stood at 79.2. For the same compound, the Liganded entry (KBTBD8 Res# 181, uniprot Q8NFY9) is “YES”.
On to `O=C(CCl)Nc1cc(C(F)(F)F)cc(C(F)(F)F)c1` [KBO3], for which the “100 Max” value turned out to be 5.3, the 100 ave is recorded as −7.4, the “500 Max” value came to 21.5 and the 500 ave stood at 21.5.
